Assay results: ChEMBL document CHEMBL5154925, “Design and Optimization of Thienopyrimidine Derivatives as Potent and Selective PI3Kδ Inhibitors for the Treatment of B-Cell Malignancies” (J Med Chem, 2022)
pIC50: −log10 of the molar value. In brackets after ≈: the same amount, converted by molar mass.

Key:
[1] = target: Phosphatidylinositol 4,5-bisphosphate 3-kinase catalytic subunit alpha isoform (Homo sapiens, UniProt P42336); test: Inhibition of PI3Kalpha (unknown origin) using PIP2 as substrate measured after 1 hr in presence of ATP by ADP-glo luminescence assay
Chain of Phosphatidylinositol 4,5-bisphosphate 3-kinase catalytic subunit alpha isoform (Homo sapiens, UniProt P42336) (P42336 whole entry, canonical isoform): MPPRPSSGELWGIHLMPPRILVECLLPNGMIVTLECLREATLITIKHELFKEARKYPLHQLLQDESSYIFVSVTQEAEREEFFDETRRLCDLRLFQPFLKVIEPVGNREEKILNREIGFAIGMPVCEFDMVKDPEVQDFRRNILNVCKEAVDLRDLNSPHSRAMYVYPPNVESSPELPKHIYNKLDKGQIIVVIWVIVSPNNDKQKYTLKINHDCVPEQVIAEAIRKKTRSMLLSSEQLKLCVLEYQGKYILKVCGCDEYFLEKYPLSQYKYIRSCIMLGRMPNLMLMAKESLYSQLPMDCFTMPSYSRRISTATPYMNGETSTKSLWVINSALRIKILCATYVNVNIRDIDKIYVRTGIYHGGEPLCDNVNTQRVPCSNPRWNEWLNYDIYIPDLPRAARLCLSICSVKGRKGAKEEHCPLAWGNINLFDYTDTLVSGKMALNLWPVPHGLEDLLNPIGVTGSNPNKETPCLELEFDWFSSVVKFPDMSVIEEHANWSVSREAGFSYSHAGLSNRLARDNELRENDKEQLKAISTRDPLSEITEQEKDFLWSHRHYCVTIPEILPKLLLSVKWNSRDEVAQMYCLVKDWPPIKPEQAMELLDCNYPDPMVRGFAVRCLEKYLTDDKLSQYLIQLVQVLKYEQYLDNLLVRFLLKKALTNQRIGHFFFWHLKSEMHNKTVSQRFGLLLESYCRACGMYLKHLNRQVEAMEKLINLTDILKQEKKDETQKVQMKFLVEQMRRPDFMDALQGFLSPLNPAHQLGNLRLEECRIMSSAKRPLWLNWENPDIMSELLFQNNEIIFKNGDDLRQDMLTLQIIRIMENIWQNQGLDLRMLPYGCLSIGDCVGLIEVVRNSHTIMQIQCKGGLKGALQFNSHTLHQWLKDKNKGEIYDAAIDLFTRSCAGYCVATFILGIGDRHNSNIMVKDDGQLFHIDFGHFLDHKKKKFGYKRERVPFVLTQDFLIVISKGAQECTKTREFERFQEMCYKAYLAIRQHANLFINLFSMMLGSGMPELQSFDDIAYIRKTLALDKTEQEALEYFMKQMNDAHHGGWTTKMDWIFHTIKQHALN

[2] = target: T1, Phosphatidylinositol 4,5-bisphosphate 3-kinase catalytic subunit delta isoform (Homo sapiens, UniProt O00329); test: Inhibition of PI3Kdelta (unknown origin) using PIP2 as substrate measured after 1 hr in presence of ATP by ADP-glo luminescence assay
T1 sequence (O00329 whole entry): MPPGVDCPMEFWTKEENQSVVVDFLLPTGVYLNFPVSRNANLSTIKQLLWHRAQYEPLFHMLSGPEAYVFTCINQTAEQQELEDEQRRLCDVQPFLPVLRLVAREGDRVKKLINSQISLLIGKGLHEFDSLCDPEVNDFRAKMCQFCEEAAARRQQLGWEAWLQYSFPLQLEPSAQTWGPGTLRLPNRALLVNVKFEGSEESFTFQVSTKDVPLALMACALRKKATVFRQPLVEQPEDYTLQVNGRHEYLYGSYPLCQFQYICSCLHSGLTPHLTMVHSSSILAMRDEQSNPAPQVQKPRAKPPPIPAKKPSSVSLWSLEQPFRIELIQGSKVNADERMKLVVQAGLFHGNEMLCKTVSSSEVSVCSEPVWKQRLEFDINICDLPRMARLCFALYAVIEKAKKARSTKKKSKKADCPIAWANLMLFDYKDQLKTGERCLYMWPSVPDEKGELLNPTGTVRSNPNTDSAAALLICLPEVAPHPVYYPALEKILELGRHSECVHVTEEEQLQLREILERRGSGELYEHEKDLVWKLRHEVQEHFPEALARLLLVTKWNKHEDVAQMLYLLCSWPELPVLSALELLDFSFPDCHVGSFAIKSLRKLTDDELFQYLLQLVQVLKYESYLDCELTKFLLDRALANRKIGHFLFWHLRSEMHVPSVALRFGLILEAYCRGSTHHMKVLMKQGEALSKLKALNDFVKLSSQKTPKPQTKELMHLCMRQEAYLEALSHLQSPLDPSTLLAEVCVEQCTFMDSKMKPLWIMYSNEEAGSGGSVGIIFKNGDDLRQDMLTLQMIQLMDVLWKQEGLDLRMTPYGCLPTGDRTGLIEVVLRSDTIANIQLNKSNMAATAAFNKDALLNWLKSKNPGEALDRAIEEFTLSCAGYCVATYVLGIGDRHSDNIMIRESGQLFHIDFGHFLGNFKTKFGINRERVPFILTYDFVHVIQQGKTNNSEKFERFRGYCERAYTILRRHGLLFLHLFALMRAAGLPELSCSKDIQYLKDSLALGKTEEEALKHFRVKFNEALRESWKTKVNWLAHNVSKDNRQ

[3] = Microsomal stability in mouse liver microsomes assessed as intrinsic clearance; assay type: ADME, Microsome; settings: read-out: CLH
[4] = target: T2, Phosphatidylinositol 4,5-bisphosphate 3-kinase catalytic subunit beta isoform (Homo sapiens, UniProt P42338); test: Inhibition of PI3Kbeta (unknown origin) using PIP2 as substrate measured after 1 hr in presence of ATP by ADP-glo luminescence assay
T2 sequence (P42338 whole entry, canonical isoform): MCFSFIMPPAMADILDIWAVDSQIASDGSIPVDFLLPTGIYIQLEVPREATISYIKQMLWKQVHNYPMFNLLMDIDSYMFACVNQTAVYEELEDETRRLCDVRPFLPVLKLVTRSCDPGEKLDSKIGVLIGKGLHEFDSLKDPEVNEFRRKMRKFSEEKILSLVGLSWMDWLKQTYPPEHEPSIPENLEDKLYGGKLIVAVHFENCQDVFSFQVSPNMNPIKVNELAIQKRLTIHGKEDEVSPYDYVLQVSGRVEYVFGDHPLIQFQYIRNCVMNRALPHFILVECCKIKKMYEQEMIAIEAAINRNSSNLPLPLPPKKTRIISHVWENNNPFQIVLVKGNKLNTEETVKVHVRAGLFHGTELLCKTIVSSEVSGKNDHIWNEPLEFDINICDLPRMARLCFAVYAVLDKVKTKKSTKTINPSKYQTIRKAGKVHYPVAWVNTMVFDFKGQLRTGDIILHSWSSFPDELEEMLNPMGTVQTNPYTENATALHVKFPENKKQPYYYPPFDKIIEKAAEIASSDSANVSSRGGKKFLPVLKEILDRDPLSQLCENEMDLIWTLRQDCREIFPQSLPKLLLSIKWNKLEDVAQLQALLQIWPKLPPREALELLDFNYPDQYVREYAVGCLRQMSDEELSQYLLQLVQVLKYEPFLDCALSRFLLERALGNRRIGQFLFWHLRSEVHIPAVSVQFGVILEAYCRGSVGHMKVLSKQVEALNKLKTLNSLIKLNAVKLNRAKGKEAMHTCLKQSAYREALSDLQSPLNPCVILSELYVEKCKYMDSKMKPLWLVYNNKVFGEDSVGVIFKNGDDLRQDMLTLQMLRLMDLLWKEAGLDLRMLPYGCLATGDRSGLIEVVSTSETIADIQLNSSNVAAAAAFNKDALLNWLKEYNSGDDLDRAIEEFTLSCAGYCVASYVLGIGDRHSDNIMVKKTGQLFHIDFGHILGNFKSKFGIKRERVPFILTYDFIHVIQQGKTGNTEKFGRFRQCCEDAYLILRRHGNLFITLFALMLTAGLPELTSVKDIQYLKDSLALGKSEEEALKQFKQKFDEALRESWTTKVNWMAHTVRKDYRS

[5] = target: Phosphatidylinositol 4,5-bisphosphate 3-kinase catalytic subunit gamma isoform (Homo sapiens, UniProt P48736); test: Inhibition of PI3Kgamma (unknown origin) using PIP2 as substrate measured after 1 hr in presence of ATP by ADP-glo luminescence assay
Chain of Phosphatidylinositol 4,5-bisphosphate 3-kinase catalytic subunit gamma isoform (Homo sapiens, UniProt P48736) (P48736 whole entry, canonical isoform): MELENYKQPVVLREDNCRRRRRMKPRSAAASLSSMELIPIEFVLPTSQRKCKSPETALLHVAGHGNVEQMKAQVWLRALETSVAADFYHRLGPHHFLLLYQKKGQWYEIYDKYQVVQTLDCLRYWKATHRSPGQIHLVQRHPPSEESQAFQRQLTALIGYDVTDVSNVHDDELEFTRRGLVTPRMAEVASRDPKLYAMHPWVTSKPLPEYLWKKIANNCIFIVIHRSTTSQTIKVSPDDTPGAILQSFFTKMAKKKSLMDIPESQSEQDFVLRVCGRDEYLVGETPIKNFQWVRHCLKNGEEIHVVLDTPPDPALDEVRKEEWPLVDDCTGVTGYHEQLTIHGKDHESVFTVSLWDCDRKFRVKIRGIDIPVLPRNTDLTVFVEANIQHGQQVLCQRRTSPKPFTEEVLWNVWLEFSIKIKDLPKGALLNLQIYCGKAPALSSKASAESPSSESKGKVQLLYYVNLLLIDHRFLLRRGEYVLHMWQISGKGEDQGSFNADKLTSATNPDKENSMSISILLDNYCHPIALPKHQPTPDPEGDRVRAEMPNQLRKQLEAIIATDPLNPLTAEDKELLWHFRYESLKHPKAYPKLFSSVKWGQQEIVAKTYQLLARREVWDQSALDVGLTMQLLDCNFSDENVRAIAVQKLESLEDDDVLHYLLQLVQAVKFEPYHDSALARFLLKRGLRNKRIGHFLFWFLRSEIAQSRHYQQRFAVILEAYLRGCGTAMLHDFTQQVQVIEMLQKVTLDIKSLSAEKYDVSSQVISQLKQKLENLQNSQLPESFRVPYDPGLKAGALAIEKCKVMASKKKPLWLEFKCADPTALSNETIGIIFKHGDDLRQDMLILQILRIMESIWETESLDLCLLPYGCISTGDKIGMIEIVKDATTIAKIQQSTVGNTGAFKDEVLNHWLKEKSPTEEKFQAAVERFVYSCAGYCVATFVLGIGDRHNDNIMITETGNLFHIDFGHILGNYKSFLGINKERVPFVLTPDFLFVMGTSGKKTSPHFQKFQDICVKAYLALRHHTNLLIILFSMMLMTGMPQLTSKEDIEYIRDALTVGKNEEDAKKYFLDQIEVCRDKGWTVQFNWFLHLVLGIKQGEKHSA

[6] = target: Serine/threonine-protein kinase mTOR (Homo sapiens, UniProt P42345); test: Inhibition of mTOR (unknown origin)
[7] = target: T1, Phosphatidylinositol 4,5-bisphosphate 3-kinase catalytic subunit delta isoform; test: Inhibition of PI3Kdelta in IgM stimulated human Raji cells incubated for 10 mins by AlphaLISA assay; assay type: cell-based
[8] = target: Phosphatidylinositol 4,5-bisphosphate 3-kinase catalytic subunit alpha isoform (Mus musculus, UniProt P42337); test: Inhibition of PI3Kalpha in IGF-1 stimulated mouse C2C12 cells incubated for 10 mins by AlphaLISA assay; assay type: cell-based
Chain of Phosphatidylinositol 4,5-bisphosphate 3-kinase catalytic subunit alpha isoform (Mus musculus, UniProt P42337) (P42337 whole entry, canonical isoform): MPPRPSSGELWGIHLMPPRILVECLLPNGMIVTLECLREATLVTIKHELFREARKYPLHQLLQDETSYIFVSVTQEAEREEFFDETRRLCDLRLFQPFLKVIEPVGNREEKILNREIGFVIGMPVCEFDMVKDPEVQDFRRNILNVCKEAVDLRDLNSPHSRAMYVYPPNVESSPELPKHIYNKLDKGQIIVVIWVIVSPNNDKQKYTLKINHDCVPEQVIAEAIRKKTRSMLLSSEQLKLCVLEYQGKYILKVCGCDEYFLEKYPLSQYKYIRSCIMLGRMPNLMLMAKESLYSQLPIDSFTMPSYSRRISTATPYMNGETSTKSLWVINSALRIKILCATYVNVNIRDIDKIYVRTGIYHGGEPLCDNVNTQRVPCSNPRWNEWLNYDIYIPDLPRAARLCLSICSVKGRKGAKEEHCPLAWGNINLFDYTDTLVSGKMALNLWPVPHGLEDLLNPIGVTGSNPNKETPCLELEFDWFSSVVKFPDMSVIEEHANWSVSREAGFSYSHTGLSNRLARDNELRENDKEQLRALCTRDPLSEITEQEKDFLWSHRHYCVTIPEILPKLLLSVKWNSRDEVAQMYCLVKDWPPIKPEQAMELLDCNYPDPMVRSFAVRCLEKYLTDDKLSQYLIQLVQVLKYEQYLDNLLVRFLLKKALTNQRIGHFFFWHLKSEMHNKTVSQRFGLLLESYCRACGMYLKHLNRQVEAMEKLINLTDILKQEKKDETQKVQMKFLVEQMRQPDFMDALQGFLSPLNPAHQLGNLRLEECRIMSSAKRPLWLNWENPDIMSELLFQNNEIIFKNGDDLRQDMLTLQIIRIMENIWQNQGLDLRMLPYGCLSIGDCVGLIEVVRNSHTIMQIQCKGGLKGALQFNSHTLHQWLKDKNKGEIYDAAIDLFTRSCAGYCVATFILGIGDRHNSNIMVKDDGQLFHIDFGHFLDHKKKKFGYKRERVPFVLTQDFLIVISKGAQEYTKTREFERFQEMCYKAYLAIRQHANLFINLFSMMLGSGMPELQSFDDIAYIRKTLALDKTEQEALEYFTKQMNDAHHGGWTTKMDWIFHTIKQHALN

[9] = target: T2, Phosphatidylinositol 4,5-bisphosphate 3-kinase catalytic subunit beta isoform; test: Inhibition of PI3Kbeta in LPA stimulated human PC-3 cells incubated for 10 mins by AlphaLISA assay; assay type: cell-based
[10] = target: Phosphatidylinositol 4,5-bisphosphate 3-kinase catalytic subunit gamma isoform (Mus musculus, UniProt Q9JHG7); test: Inhibition of PI3Kgamma in C5a stimulated mouse RAW264.7 cells incubated for 10 mins by AlphaLisa assay; assay type: cell-based
[11] = Solubility of the compound in PBS; assay type: physicochemical
[12] = Plasma protein binding in mouse; assay type: ADME, cell-free; settings: read-out: PPB (converted)
[13] = Microsomal stability in mouse liver microsomes assessed as half life; assay type: ADME, Microsome
[14] = Solubility of the compound in FaSSIF; assay type: physicochemical

Structure (SMILES)	pIC50 [1]	pIC50 [2]	also measured
CCC(=O)N1CC[C@H](Oc2ncnc3sc(-c4cnc(OC)c(OC)c4)cc23)C1	6.37	7.96	–
COc1cc(-c2cc3c(N[C@H]4CCN(C(=O)C(C)C)C4)ncnc3s2)cnc1OC	6.62	7.26	–
CCC(=O)N1CC[C@H](Nc2ncnc3sc(-c4ccc(OC)c(F)c4)cc23)C1	5.25	6.74	–
COc1cc(-c2cc3c(N[C@H]4CCN(C(=O)C5CCC5)C4)ncnc3s2)cnc1OC	6.76	8.66	CLint scaled [3]: 342 mL/min/kg; pIC50 [4]: 5.86; pIC50 [5]: 5.70; pIC50 [6]: < 5.00; pIC50 [7]: 7.47; pIC50 [8]: 4.68; pIC50 [9]: 5.38; pIC50 [10]: 5.32; solubility [11]: 5.67 µM (≈ 2.49 µg/mL); fraction unbound [12]: 0.01; half-life [13]: 15.9 min; solubility [14]: 39.7 µM (≈ 17.4 µg/mL)
CCC(=O)N1CC[C@H](Oc2ncnc3sc(-c4cnc(OC)c(C(F)(F)F)c4)cc23)C1	< 5.00	6.57	–
COc1cc(-c2cc3c(N[C@H]4CCN(C(=O)c5ccccc5)C4)ncnc3s2)cnc1OC	6.40	7.59	–
COc1cc(-c2cc3c(O[C@H]4CCN(C(=O)C(C)C)C4)ncnc3s2)cnc1OC	6.39	8.00	–
CCC(=O)N1CC[C@H](Oc2ncnc3sc(-c4cnc(OC)c(F)c4)cc23)C1	5.10	7.01	–
CCC(=O)N1CC[C@H](Nc2ncnc3sc(-c4cnc(OC)c(F)c4)cc23)C1	5.47	7.27	–
COc1cc(-c2cc3c(O[C@H]4CCN(C(=O)C5CCC5)C4)ncnc3s2)cnc1OC	6.41	8.48	CLint scaled [3]: 1070 mL/min/kg; pIC50 [4]: 5.71; pIC50 [5]: 5.54; pIC50 [6]: < 5.00; pIC50 [7]: 7.12; pIC50 [8]: 4.55; pIC50 [9]: 5.21; pIC50 [10]: 5.22; solubility [11]: 1.41 µM (≈ 0.621 µg/mL); fraction unbound [12]: 0.011; half-life [13]: 5.09 min; solubility [14]: 5.89 µM (≈ 2.59 µg/mL)
CCC(=O)N1CC[C@H](Nc2ncnc3sc(-c4ccc(C#N)nc4)cc23)C1	< 6.00	6.34	–
COc1cc(-c2cc3c(O[C@H]4CCN(C(=O)C5CC5)C4)ncnc3s2)cnc1OC	6.49	8.00	–
CCC(=O)N1CC[C@H](Nc2ncnc3sc(-c4cncc(S(C)(=O)=O)c4)cc23)C1	5.92	7.42	–
CCC(=O)N1CC[C@H](Nc2ncnc3sc(-c4ccc(OC)nc4)cc23)C1	5.54	6.87	–
